Results published in publication PMC5047629, “Synthesis, Pharmacological Profile and Docking Studies of New Sulfonamides Designed as Phosphodiesterase-4 Inhibitors” (PLoS ONE, 2016).

Legend:
PDE3 = PDE3 activity inhibition; format: biochemical; conditions: 10 μM
PDEs5-11 = test: PDE selectivity profile evaluated by CEREP; format: biochemical, human; conditions: 10 μM; data not shown
Method: The selectivity profile of compound 6a (LASSBio-448) toward the human PDE1, PDE2, PDE5-PDE8, PDE10 and PDE11 was evaluated by CEREP.

A/J mice [1] = test: Short-term murine model of asthma (OVA provocations at days 19 and 20), prophylactic treatment; format: in vivo; conditions: 100 mg/Kg oral, 1 h before each OVA challenge, 24 h after last provocation
Method: Sensitization was performed by means of a subcutaneous injection of 50 μg ovalbumin (OVA) (grade V; Sigma-Aldrich, St. Louis, MO) adsorbed to 5 mg of Al(OH)3 in 0.2 mL of sterile 0.9% NaCl (saline) at days 0 and 14. Intranasal OVA provocations (25 μg /25 μL saline) were performed at 19 and 20 days post-sensitization under isofluorane volatile anaesthesia (Cristalia, São Paulo, Brazil). Alternatively, sensitization as described above were done at days 0 and 7, while the OVA provocations were carried out at days 14, 21, 28 and 35 [39]. Negative control groups were represented by sensitized mice in which allergen was replaced by saline as a challenge. […]
The EPO activity present in lung tissue was determined with a colorimetric assay as described by Strath et al. (1985), with minor modifications. […] The optical density reading was performed on the SpectraMax M5 spectrophotometer (Molecular Devices) at a wavelength of 492 nm.
Twenty-four hours after the last challenge the animals were killed by an over dose of thiopental (200 mg/kg, i.p.) and bronchoalveolar lavage (BAL) was performed three times by intratracheal instillation of 500 μL of PBS and EDTA (10 mM) through a trachea cannula and gently aspirating the fluid. […] Total leukocyte numbers were measured in Neubauer chambers using light microcopy after diluting the samples in Türk solution (2% acetic acid). […]

[2] = system: guinea-pig tracheal smooth muscle cells; test: cAMP intracellular levels in airway smooth muscle cells (radioimmunoassay); format: cell-based; conditions: 100 μM, S1B Fig
Method: Intracellular cAMP concentrations were assayed in primary cultured guinea-pig tracheal smooth muscle cells as reported. Briefly, smooth muscle cells obtained from guinea pig tracheas were cultured in DMEM containing 10% fetal bovine serum, 100 units/ml of penicillin, […] of streptomycin and 2 mM of glutamine for 3 to 7 days. After the third cell splitting, 10^6 cells/well were grown in 24-well plates. At confluence, smooth muscle cells were washed with PBS and incubated with 100 μM LASSBio-448 or forskolin (adenylyl cyclase activator), in the presence or absence of 100 μM SQ22536 (adenylyl cyclase inhibitor) for 30 min. Lysed cells were collected and the intracellular cAMP was evaluated by means of radioimmunoassay (TRK 432–Cyclic AMP^[3H] Biotrak assay system—Amersham Pharmacia Biotech, Buckinghamshire, England) following manufacturer’s guidelines.

PDE4D = target: T1, PDE4D (Homo sapiens, UniProt Q08499); test: PDE4D inhibition, IMAP fluorescence polarization protocol; format: biochemical
T1 construct: purchased MDS PHARMA
T1 sequence (Q08499 1-673 isoform Q08499-2): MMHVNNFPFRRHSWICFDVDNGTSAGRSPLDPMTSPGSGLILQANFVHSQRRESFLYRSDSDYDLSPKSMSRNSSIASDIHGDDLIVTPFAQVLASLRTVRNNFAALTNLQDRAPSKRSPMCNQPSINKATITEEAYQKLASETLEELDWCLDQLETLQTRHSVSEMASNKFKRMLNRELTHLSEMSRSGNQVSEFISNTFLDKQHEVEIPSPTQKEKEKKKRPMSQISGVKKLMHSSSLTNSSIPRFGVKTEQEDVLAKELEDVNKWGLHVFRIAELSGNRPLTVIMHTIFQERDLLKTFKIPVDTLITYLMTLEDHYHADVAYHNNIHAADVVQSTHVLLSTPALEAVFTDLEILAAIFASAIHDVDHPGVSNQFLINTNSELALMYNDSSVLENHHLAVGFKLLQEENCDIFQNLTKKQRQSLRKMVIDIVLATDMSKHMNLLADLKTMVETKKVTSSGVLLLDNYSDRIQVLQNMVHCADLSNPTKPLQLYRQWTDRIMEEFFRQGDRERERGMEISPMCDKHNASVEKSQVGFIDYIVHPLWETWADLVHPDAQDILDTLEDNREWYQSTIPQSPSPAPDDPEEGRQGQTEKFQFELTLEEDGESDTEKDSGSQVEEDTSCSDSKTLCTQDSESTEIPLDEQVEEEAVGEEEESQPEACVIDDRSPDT
Method: The enzymatic reactions were carried at room temperature in a 96-well black plate by co-incubating 25 μL of 200 nM FAM-cAMP (R7513), 5 μL of putative inhibitory compounds and 20 μL of the PDE4 isoform dissolved in assay buffer (R7364) for 1 h. All enzymes were obtained from human recombinant sources (MDS PHARMA), whereas the other reagents were purchased from Molecular Devices. […] PDE4 inhibitors were dissolved in dimethyl sulfoxide (DMSO) at a final concentration of 0.1%.
The inhibitory activities of the new sulfonamide derivatives were evaluated for their selectivity against the four isoforms of human PDE4, i.e. PDE4A, PDE4B, PDE4C, and PDE4D, using an IMAP-FP protocol.

A/J mice [3] = test: Murine model of asthma with 4 weekly OVA provocations (days 14, 21, 28, 35), interventional treatment; format: in vivo; conditions: LASSBio-448 100 mg/Kg oral
Method: Sensitization was performed by means of a subcutaneous injection of 50 μg ovalbumin (OVA) (grade V; Sigma-Aldrich, St. Louis, MO) adsorbed to 5 mg of Al(OH)3 in 0.2 mL of sterile 0.9% NaCl (saline) at days 0 and 14. Intranasal OVA provocations (25 μg /25 μL saline) were performed at 19 and 20 days post-sensitization under isofluorane volatile anaesthesia (Cristalia, São Paulo, Brazil). Alternatively, sensitization as described above were done at days 0 and 7, while the OVA provocations were carried out at days 14, 21, 28 and 35 [39]. Negative control groups were represented by sensitized mice in which allergen was replaced by saline as a challenge. Treatments were done orally 1 h before provocations. Test compounds were dissolved in saline containing 0.2% Tween 80. All solutions were freshly prepared immediately before use. Analyses were performed 24 h after the last provocation.
Airflow and transpulmonary pressure were recorded with a Buxco pulmonary mechanics processing system (Buxco Electronics, Sharon, CT), which calculated resistance (cmH2O.s/ml) and dynamic lung compliance (mL/cmH2O) in each breath cycle. Elastance was calculated as the inverse of compliance values. Mice were anesthetized with nembutal (60 mg/kg), and the neuromuscular activity was blocked with bromide pancuronium (1 mg/kg). Animals were allowed to stabilize for 5 min and increasing concentrations of methacholine (3–27 mg/mL) were aerosolized for 5 min each. Baseline pulmonary parameters were assessed with aerosolized phosphate buffer solution (PBS).
The EPO activity present in lung tissue was determined with a colorimetric assay as described by Strath et al. (1985), with minor modifications. Briefly, the lungs were cannulated and perfused with saline/EDTA (20 mM). Then, lung samples were homogenized in buffer solution containing 0.5% HBSS (Hank´s balanced solution, pH 7.4; Sigma Chemical Co.) using a tissue homogenizer (T25 ultra-Tirrax). Samples were centrifuged at 1300 xg for 10 min at 4°C. Red blood cells were removed by hypotonic and hypertonic lysis. The suspended cells were then centrifuged again at 1300 xg for 10 min at 4°C. The pellet was then suspended in a solution of HBSS containing 0.5% of HTAB (hexadecyltrimethylamonium bromide; Sigma Chemical Co.) (pH 7.4). This suspension was subjected to heat shock for lysing the cells in three cycles freeze/thawed. At the end, the supernatants were collected, centrifuged at 12000 rpm for 15 min at 4°C and assayed spectrophotometrically for EPO determination. Fifty μl of the samples were placed, and then 50 μl of the substrate (1.5 mM o-phenylenediamine and 6.6 mM hydrogen peroxide in 0.05 mM Tris-HCl buffer, pH 8.0) was added and, after a 30 min incubation at room temperature, 50 μl of H2SO4 (4M) was added to stop the reaction. The optical density reading was performed on the SpectraMax M5 spectrophotometer (Molecular Devices) at a wavelength of 492 nm.
Right lungs tissue samples from saline- and OVA-exposed mice were homogenized in PBS containing 0.05% Triton X-100 and a protease inhibitor cocktail (Complete®, Hoffmann-La Roche Ltd, Basel, Switzerland). After centrifugation at 13000xg for 10 min and 4°C, the levels of IL-13, IL-5, IL-4 and eotaxin-2 were quantified in the supernatant, using commercially available ELISA kits (DuoSet; R&D Systems, Minneapolis, MN, USA). The results were expressed as picograms of cytokine per right lung.

[4] = rolipram 10 mg/Kg oral, right lung, 24 h after last challenge, vs vehicle, Fig 8

COc1ccc(CCNS(=O)(=O)c2cc3c(cc2C)OCO3)cc1OC [6a (LASSBio-448), N-(3,4-dimethoxyphenethyl)-6-methylbenzo[d][1, 3]dioxole-5-sulfonamide]
inhibition of PDE3 activity (PDE3): failed to inhibit
inhibition of PDEs5-11 (PDEs5-11): unable to inhibit
eosinophil levels in bronchoalveolar lavage fluid (A/J mice [1]; Fig 4A): clearly prevented the up-regulation
eosinophil levels in lung tissue homogenates (EPO colorimetric assay) (A/J mice [1]; Fig 4B): clearly prevented the up-regulation
cAMP intracellular levels in cultured tracheal smooth muscle cells ([2]; levels comparable to forskolin): up-regulated
cAMP elevating effect after pre-treatment with SQ22,536 ([2]; pre-treatment with 100 μM SQ22,536): clearly abrogated
inhibition at 1 µM (PDE4D; 1 μM, mean ± SEM, 3 experiments, read-out: PDE4D3 inhibition): 26.5 ± 0.7%
selective inhibitory index (SI) PDE4D/PDE4A (PDE4D; ratio of IC50 values): 6.7
selective inhibitory index (SI) PDE4D/PDE4B (PDE4D; ratio of IC50 values): 3.3
IC50 (PDE4D; recombinant enzyme, mean ± SEM of three measurements): 4.7 ± 0.09 µM
extracellular matrix deposition (histology) (A/J mice [3]; interventional, Fig 6): sensitive to the interventional treatment
mucus exacerbation (histology) (A/J mice [3]; interventional, Fig 6): sensitive to the interventional treatment
airway hyper-reactivity to methacholine, airway resistance (A/J mice [3]; rolipram 10 mg/Kg oral, Fig 7A): equally effective in inhibiting
airway hyper-reactivity to methacholine, lung elastance (A/J mice [3]; rolipram 10 mg/Kg oral, Fig 7B): equally effective in inhibiting
IL-4 level in lung tissue (A/J mice [3]; [4]): reduction in the levels
IL-5 level in lung tissue (A/J mice [3]; [4]): reduction in the levels
IL-13 level in lung tissue (A/J mice [3]; [4]): reduction in the levels
eotaxin-2 level in lung tissue (A/J mice [3]; [4]): reduction in the levels
allergen-induced eosinophil accumulation in the lung tissue (eosinophil peroxidase) (A/J mice [3]; rolipram 10 mg/kg oral, at third and fourth weeks of challenge, Fig 5): impair the progress
